Paper PMC12184311 (2025)

How the values were obtained:
[1] = system: 4WJ-22 (DNA, junction) GCCTAGCATGATACTGCTACCG/CGGTAGCAGTACCGTTGGTGGC/GCCACCAACGGCGTCAACTGCC/GGCAGTTGACGTCATGCTAGGC; assay: PAGE gel shift; conditions: Na+ 50 mM (NaCl); 1X TB
[2] = system: 4WJ-18 (DNA, junction) GCTAGCTGATACGCTACG/CGTAGCGTACGTTGGTGC/GCACCAACGCGTCACTCC/GGAGTGACGTCAGCTAGC; assay: PAGE; conditions: Na+ 50 mM (NaCl); 1X TB, 37 °C 1 h incubation; 0.25 to 5 equiv; compound induces junction assembly
[3] = system: FAM-labelled 4WJ-18 (DNA, junction) GCTAGCTGATACGCTACG/CGTAGCGTACGTTGGTGC/GCACCAACGCGTCACTCC/GGAGTGACGTCAGCTAGC; assay: PAGE competition, FAM fluorescence; conditions: Na+ 50 mM (NaCl); 1X TB, 37 °C 1 h; 1 equivalent Pt-BIMA; competitor unlabelled 4WJ-18, Y fork, dsDNA, 3WJ
[4] = system: 3WJ (DNA, junction) CGGAACGGCACTCG/CGAGTGCAGCGTGG/CCACGCTCGTTCCG; assay: PAGE; conditions: Na+ 50 mM (NaCl), 1X TB, 37 °C 1 h incubation

| Structure (SMILES) | binding [1] | binding [2] | binding [3] | binding ([4]; 0.25 to 5 equiv) | binding ([4]; control lane) |
| --- | --- | --- | --- | --- | --- |
| [Pt+2].[Pt+2].c1ccc2c(c1)ncn2Cc1c2ccccc2c(Cn2cnc3ccccc32)c2ccccc12.c1ccc2c(c1)ncn2Cc1c2ccccc2c(Cn2cnc3ccccc32)c2ccccc12.c1ccc2c(c1)ncn2Cc1c2ccccc2c(Cn2cnc3ccccc32)c2ccccc12.c1ccc2c(c1)ncn2Cc1c2ccccc2c(Cn2cnc3ccccc32)c2ccccc12 | yes | yes | yes | yes |  |
| [Pd+2].[Pd+2].c1ccc2c(c1)ncn2Cc1c2ccccc2c(Cn2cnc3ccccc32)c2ccccc12.c1ccc2c(c1)ncn2Cc1c2ccccc2c(Cn2cnc3ccccc32)c2ccccc12.c1ccc2c(c1)ncn2Cc1c2ccccc2c(Cn2cnc3ccccc32)c2ccccc12.c1ccc2c(c1)ncn2Cc1c2ccccc2c(Cn2cnc3ccccc32)c2ccccc12 |  | yes |  | yes |  |
| C(=Nc1ccc(Cc2ccc(N=Cc3ccccn3)cc2)cc1)c1ccccn1.C(=Nc1ccc(Cc2ccc(N=Cc3ccccn3)cc2)cc1)c1ccccn1.C(=Nc1ccc(Cc2ccc(N=Cc3ccccn3)cc2)cc1)c1ccccn1.[Ni+2].[Ni+2] |  |  |  |  | yes |
